In patent publication US7732398B2, “Medicinal uses of mu-opioid receptor agonists” (Cornell Research Foundation, Inc., priority 2000, dated 2010):

What was measured:
[1] = tested on: [^3H]NE uptake in spinal cord synaptosomes; test: Inhibition of [3H]NE uptake in spinal cord synaptosomes; format: biochemical, guinea pig; conditions: for IC50: spinal cord synaptosomes, 95% confidence interval in brackets
Description: Adult female Hartley strain guinea pigs (440-550 g) were decapitated and the spinal cords taken out. A crude synaptosomal (P2) fraction was prepared as described previously (Lonart and Johnson 1995; Li 2000). Briefly, the tissue was minced and homogenized in 10 ml of ice-cold 0.32 M sucrose solution (pH7.4) with a Thomas B075 homogenizor, clearance 0.13-0.18 mm. The homogenate was centrifuged for 10 min at 1,200×g in a Megafuge centrifuge at 4° C. The resulting supernatant was then centrifuged at 20,000×g for 20 min in JA-17 rotor of a Beckman J2-21 centrifuge at 4° C. and the supernatant discarded. The pellet (P2) was gently resuspended in aerated (100% O2) ice-cold buffer containing (in mM):HEPES 20, NaCl 140, KCl 5, NaHCO3 5, MgCl2 1, Na2HPO4 1.2, CaCl2 1.2 and glucose 10, pH 7.4, and centrifuge at 3,000×g for 12 min in a Megafuge at 4° C. Pour out the supernatant. Gently resuspend synaptosome in 10 ml buffer with the aid of a Dounce homogenizor just before using. Protein concentration was determined by the method of Bradford (1976) at 595 nm using bovine serum albumin as a standard in a Spectra Max plus machine (Molecular Device Co. Sunnyvale, Calif.)
Add buffer 0.6 ml in tubes, synaptosome solution 0.2 ml (about 100 μg), then varying concentration of drug 0.1 ml (each concentration performed in triplicate), put in water bath for pre-incubation for 10 min at 37° C. The uptake was initiated by the addition of [^3H]NE (100 nM) or [^3H]5-HT (50 nM) 0.1 ml, continued to incubate for 6 min and terminated by a rapid cooling of sample tubes in ice-cold water for 3 min. The synaptosome were then collected using a Harvest machine with GF/B filter, washed for 3 times with ice-cold 150 mM Tris HCl buffer (pH7.4) 2 ml. After drying, put filter in scintillation liquid vials then add scintillation liquid 6 ml. Filter-bound radioactivity was counted by liquid scintillation counter (Beckman LS6001). The difference in [^3H]NE or [^3H]5-HT accumulation at 37° C. and 0° C. was taken as a measure of active uptake. […]

[2] = tested on: 5-HT uptake in spinal cord synaptosomes; test: Inhibition of [3H]5-HT uptake in spinal cord synaptosomes; format: biochemical, guinea pig; conditions: data not shown
Description: Adult female Hartley strain guinea pigs (440-550 g) were decapitated and the spinal cords taken out. A crude synaptosomal (P2) fraction was prepared as described previously (Lonart and Johnson 1995; Li 2000). Briefly, the tissue was minced and homogenized in 10 ml of ice-cold 0.32 M sucrose solution (pH7.4) with a Thomas B075 homogenizor, clearance 0.13-0.18 mm. The homogenate was centrifuged for 10 min at 1,200×g in a Megafuge centrifuge at 4° C. The resulting supernatant was then centrifuged at 20,000×g for 20 min in JA-17 rotor of a Beckman J2-21 centrifuge at 4° C. and the supernatant discarded. The pellet (P2) was gently resuspended in aerated (100% O2) ice-cold buffer containing (in mM):HEPES 20, NaCl 140, KCl 5, NaHCO3 5, MgCl2 1, Na2HPO4 1.2, CaCl2 1.2 and glucose 10, pH 7.4, and centrifuge at 3,000×g for 12 min in a Megafuge at 4° C. Pour out the supernatant. […] Protein concentration was determined by the method of Bradford (1976) at 595 nm using bovine serum albumin as a standard in a Spectra Max plus machine (Molecular Device Co. Sunnyvale, Calif.)
Add buffer 0.6 ml in tubes, synaptosome solution 0.2 ml (about 100 μg), then varying concentration of drug 0.1 ml (each concentration performed in triplicate), put in water bath for pre-incubation for 10 min at 37° C. […] Filter-bound radioactivity was counted by liquid scintillation counter (Beckman LS6001). […]

[3] = known value (Szeto et al., 1998); cited from earlier work
[4] = tested on: rats (F344 strain); test: Myocardial stunning during myocardial ischemia and reperfusion in rats; format: in vivo, rat
Description: In the [Dmt^1]DALDA group, [Dmt^1]DALDA was administered as a 10 nmol bolus, followed by 10 nmol/h continuous infusion. […] The control group received the same volume of saline as a bolus and continuous infusion.
The left anterior descending artery was occluded by applying tension to the sling through a polyethylene 10 tubing and clamping. Successful occlusion was confirmed by typical electrocardiographic changes and wall motion abnormality on echocardiogram. After 10 min of myocardial ischemia, the sling was released to reperfuse the left anterior descending artery. Time to recovery of left ventricular function was defined as the duration from the reperfusion to recovery of fractional shortening above 90% of baseline. Duration of reperfusion arrhythmia was defined as the duration of time to the last three consecutive premature ventricular contractions (salvo) after reperfusion. All procedures were performed in a blinded manner, with the groups assigned letters and their identities unknown to the operators. Likewise, the two independent investigators analyzing the data were blind to the treatment assignments.
All procedures and care of animals were in accordance with guidelines approved by the Institution for the Care and Use of Animals at Weill Medical College of Cornell University. Following anesthesia with 0.2 mg of ketamine and 1 mg xylazine given intraperitoneally, tracheostomy with blunt dissection of the neck and intubation with polyethylene tubing 240 was performed. Mechanical ventilation was started with room air at 90 respirations per min. The internal jugular vein was surgically exposed and a polyethylene tubing was inserted for drug administration. Left thoracotomy was performed through fifth intercostal space to expose the heart. After removal of the pericardium, a 6.0 Nylon sling was placed around the proximal left anterior descending artery just below the level of the left atrial appendage, to be used for occlusion of the coronary artery. Continuous echocardiogram was obtained by inserting a 10 French intracardiac probe into the esophagus (Acuson-Sequoia C256) and a two-dimensional echocardiogram was recorded continuously, with 10 MHz echo signals throughout the procedure. Electrocardiographic monitoring from a standard lead II (AC AMP 700) was digitally recorded throughout the procedure.
M-mode recordings were obtained for the analysis of wall motion and left ventricular systolic function. Left ventricular end diastolic and end systolic dimensions were measured at the level of papillary muscle. Fractional shortening as a measure of the global left ventricular function was calculated as the difference between left ventricular end diastolic and end systolic dimensions divided by end diastolic dimension×100. Systolic wall thickening of the anterior wall in percent, as a measure of the ischemic regional wall motion, was calculated as the difference between left ventricular end diastolic and end systolic wall thickness divided by end diastolic wall thickness×100.
Echocardiographic and electrocardiographic data are presented as mean value±SD. ANOVA was used to compare among the groups. A p-value<0.05 was considered significant.

[5] = tested on: awake sheep; test: Blood pressure in sheep after intravenous administration; format: in vivo
Text: Even a brief period of increased blood pressure may be a risk factor in patients with hypertension, compromised myocardial function (such as after a myocardial infarction) or patients who are at risk for strokes. The response is short-lasting because the receptor desensitizes rapidly. We can take advantage of this rapid desensitization and eliminate the blood pressure response by administering the drug as a slow intravenous infusion rather than as a rapid bolus injection.
[…] […] Thus the increase in blood pressure can be avoided by using a slow intravenous infusion of [Dmt^1]DALDA.

[6] = Five min. after reperfusion, listed as morphine

Row | SMILES | IC50 [1] [µM] | effect on 5-HT uptake [2] | Ejection fraction ([4]; After ligation) [%] | Fractional shortening ([4]; After ligation) [%] | Systolic wall thickening ([4]; After ligation) [%] | Ejection fraction ([4]; Baseline) [%] | Fractional shortening ([4]; Baseline) [%] | Systolic wall thickening ([4]; Baseline) [%] | Ejection fraction ([4]; Five min. after reperfusion) [%] | Fractional shortening ([4]; Five min. after reperfusion) [%] | Systolic wall thickening ([4]; Five min. after reperfusion) [%] | Fractional shortening ([4]; Ten min. after reperfusion) [%] | Systolic wall thickening ([4]; Ten min. after reperfusion) [%] | also measured
1 | NCCCC[C@H](NC(=O)[C@H](Cc1ccccc1)NC(=O)[C@@H](CCCN=C(N)N)NC(=O)[C@@H](N)Cc1ccc(O)cc1)C(N)=O [DALDA, H-Tyr-D-Arg-Phe-Lys-NH2] | 54 | Neither DALDA nor [Dmt^1]DALDA had any effect | – | – | – | – | – | – | – | – | – | – | – | elimination half-life [3]: ~1.5 h
2 | CN1CC[C@]23c4c5ccc(O)c4O[C@H]2[C@@H](O)C=C[C@H]3[C@H]1C5 [Morphine, morphine, reference compound] | – | – | 31.3 ± 4.2 | 21.0 ± 3.9 | 7.8 ± 6.5 | 64.6 ± 6.0 | 46.5 ± 3.6 | 47.7 ± 4.5 | 39.5 ± 11.1 | 39.1 ± 6.4 | 33.7 ± 7.5 | 45.3 ± 6.2 | 42.2 ± 5.8 | Fractional shortening [4, 6]: 39.1±6.4%; Systolic wall thickening [4, 6]: 33.7±7.5%; Time to recovery of left ventricular function ([4]; from reperfusion to fractional shortening above 90% of baseline, [Dmt1]DALDA 10 nmol + 10 nmol/h, morphine 100 nmol + 100 nmol/h iv): 6.0 ± 2.5 min; duration of reperfusion arrhythmia ([4]; time to last salvo after reperfusion): 5.8 ± 3.9 min
3 | Cc1cc(O)cc(C)c1C[C@H](N)C(=O)N[C@H](CCCNC(=N)N)C(=O)N[C@@H](Cc1ccccc1)C(=O)N[C@@H](CCCCN)C(N)=O [[Dmt^1]DALDA, 2′,6′-dimethyl-Tyr-D-Arg-Phe-Lys-NH2] | 4.1 | Neither DALDA nor [Dmt^1]DALDA had any effect | 31.4 ± 5.6 | 27.1 ± 4.0 | 7.6 ± 4.7 | 64 ± 9.2 | 47.8 ± 4.2 | 47.0 ± 6.1 | 48.9 ± 10.1 | 45.7±2.4 | 48.3±7.6 | 44.0±3.8 | 50.5±8.4 | inhibition of [3H]NE uptake ([1]; at a dose of 10^−4): 80.6±1.5%; blood pressure ([5]; constant rate intravenous infusion 0.06-0.6 mg/kg/h for as long as 4 h): no significant change in blood pressure; blood pressure ([5]; intravenous bolus 0.003-0.009 mg/kg, awake sheep): transient increase in blood pressure; potency relative to DALDA in increasing blood pressure ([5]; sheep, unpublished data): 100 fold; effect on contractility during preischemic or postischemic periods ([4]; review of continuous echocardiogram): no effects of [Dmt^1]DALDA on the contractility
